Measurements taken from patent US20250051356A1, “RIFABUTIN ANALOGS FOR THE TREATMENT OF DISEASE” (priority 2021, published 2025).
≈ marks a conversion by molar mass, not a printed value. Read-outs that look alike come from different tables or passages of the source.

Legend:
Assay type in all cases: cell-based
[1] = system: M. abscessus subsp. abscessus ATCC 19977; assay: MIC against M. abscessus in Middlebrook 7H9 + ADC; conditions: for MIC: Mycobacteroides abscessus, ATCC19977
[2] = system: M. abscessus subsp. abscessus CCUG 71636; assay: MIC against M. abscessus isolate in 7H9 + ADC; conditions: for MIC: Mycobacteroides abscessus, CCUG71636
[3] = system: M. abscessus subsp. abscessus CCUG 71382; assay: MIC against M. abscessus isolate in 7H9 + ADC; conditions: for MIC: Mycobacteroides abscessus, CCUG71382
[4] = system: M. abscessus subsp. bolletii CCUG 50184; assay: MIC against M. abscessus isolate in 7H9 + ADC; conditions: for MIC: Mycobacteroides abscessus, CCUG50184
[5] = system: M. abscessus subsp. massiliense CCUG 48898; assay: MIC against M. abscessus isolate in 7H9 + ADC; conditions: for MIC: Mycobacteroides abscessus, CCUG48898
[6] = system: A. baumannii wild type (WT); assay: MIC against A. baumannii isolate in RPMI + FCS
[7] = system: A. baumannii Arr-2; assay: microbe, parasite or virus in culture; conditions: for MIC: Acinetobacter baumannii, ARR2, read-out: A. baumannii MIC in RPMI + FCS, Arr-2
[8] = system: A. baumannii RpoB H535Q mutant; assay: microbe, parasite or virus in culture; conditions: for MIC: Acinetobacter baumannii, RPOBH535QMUTANT, read-out: A. baumannii MIC in RPMI + FCS, RpoB H535Q
[9] = system: A. baumannii RpoB H535C mutant; assay: microbe, parasite or virus in culture; conditions: for MIC: Acinetobacter baumannii, RPOBH535CMUTANT, read-out: A. baumannii MIC in RPMI + FCS, RpoB H535C
[10] = system: A. baumannii RpoB H535L mutant; assay: microbe, parasite or virus in culture; conditions: for MIC: Acinetobacter baumannii, RPOBH535LMUTANT, read-out: A. baumannii MIC in RPMI + FCS, RpoB H535L
[11] = system: Enterococcus faecium (strain NCTC 12204); assay: MIC against E. faecium; conditions: for MIC: Enterococcus faecium
[12] = system: Enterococcus faecalis (strain ATCC 51575); assay: MIC against E. faecalis; conditions: for MIC: Enterococcus faecalis, ATCC51575, CAMHB
[13] = system: Staphylococcus epidermidis (strain ATCC 12228); assay: MIC against S. epidermidis; conditions: for MIC: Staphylococcus epidermidis, ATCC12228, CAMHB
[14] = system: Streptococcus pneumoniae (strain ATCC 49619); assay: MIC against S. pneumoniae; conditions: CAMHB + 5% laked horse blood
[15] = system: Mycobacterium tuberculosis (H37Rv, strain ATCC 27294)
[16] = system: Streptococcus pyogenes (strain IHMA 1117021); assay: MIC against S. pyogenes; conditions: CAMHB + 5% laked horse blood
[17] = system: Hemophilus influenzae (strain ATCC 49247); assay: MIC against H. influenzae; conditions: for MIC: Haemophilus influenzae, ATCC49247, Hemophilus test medium broth
[18] = system: M. smegmatis (strain ATCC 700084); assay: MIC against M. smegmatis (90% growth inhibition, BacTiter-Glo); conditions: 7H9 + ADC, 20 hours
[19] = system: S. aureus (UAMS-1625 strain); assay: MIC by broth microdilution against S. aureus; conditions: Staphylococcus aureus, read-out: MIC S. aureus
[20] = system: A. baumannii (HUMC1 strain); assay: MIC by broth microdilution against A. baumannii in RPMI + 10% FCS; conditions: Acinetobacter baumannii; HUMC1 strain; RPMI + 10% FCS; read-out: MIC A. baumannii
[21] = system: M. kansasii (ATCC 12478); assay: MIC against M. kansasii in CAMHB + ADC; conditions: Mycobacterium kansasii, ATCC12478; ATCC 12478; CAMHB + ADC (5%); read-out: MIC M. kansasii
[22] = system: M. xenopi (ATCC 19250); assay: MIC against M. xenopi in CAMHB + ADC; conditions: Mycobacterium xenopi, ATCC19250; ATCC 19250; CAMHB + ADC (5%); read-out: MIC M. xenopi
[23] = system: M. avium (ATCC 25291); assay: MIC against M. avium in CAMHB + ADC; conditions: Mycobacterium avium, ATCC25291; ATCC 25291; CAMHB + ADC (5%); read-out: MIC M. avium
[24] = system: M. abscessus subsp. abscessus ATCC 19977; assay: MIC against M. abscessus isolate in CAMHB; conditions: Mycobacteroides abscessus, ATCC19977
[25] = system: M. abscessus subsp. abscessus CCUG 71636; assay: MIC against M. abscessus isolate in CAMHB; conditions: Mycobacteroides abscessus, CCUG71636; read-out: M. abscessus MIC in CAMHB, abscessus CCUG 71636
[26] = system: M. abscessus subsp. abscessus CCUG 71382; assay: MIC against M. abscessus isolate in CAMHB; conditions: Mycobacteroides abscessus, CCUG71382
[27] = system: M. abscessus subsp. bolletii CCUG 50184; assay: MIC against M. abscessus isolate in CAMHB; conditions: Mycobacteroides abscessus, CCUG50184
[28] = system: M. abscessus subsp. massiliense CCUG 48898; assay: MIC against M. abscessus isolate in CAMHB; conditions: Mycobacteroides abscessus, CCUG48898
[29] = system: M. abscessus strains; assay: MIC over the five tested M. abscessus strains in 7H9 + ADC; conditions: Mycobacteroides abscessus, span over five isolates, read-out: MIC values against the tested M. abscessus strains
[30] = system: A. baumannii with Arr-mediated and RpoB mutation-mediated resistance
[31] = ATCC 19977, 7H9 + ADC, read-out: MIC M. abscessus
[32] = read-out: M. abscessus MIC in 7H9 + ADC, abscessus ATCC 19977

SMILES | MIC [19] [µg/mL] | MIC [20] [µg/mL] | MIC [1, 31] [µg/mL] | MIC [1, 32] [µg/mL] | MIC [21] [µg/mL] | MIC [22] [µg/mL] | MIC [23] [µg/mL] | MIC [2] [µg/mL] | MIC [3] [µg/mL] | MIC [4] [µg/mL] | MIC [5] [µg/mL] | MIC [7] [µg/mL] | MIC [8] [µg/mL] | MIC [9] [µg/mL] | MIC [10] [µg/mL] | MIC [12] [µg/mL] | MIC [13] [µg/mL] | MIC [17] [µg/mL] | MIC [29] [µg/mL] | antibacterial activity against A. baumannii wild type strain [6] | other results
CO[C@H]1/C=C/O[C@@]2(C)Oc3c(C)c(O)c4c(c3C2=O)C(=O)C(N2CCOCC2)=C(NC(=O)/C(C)=C\C=C\[C@H](C)[C@H](O)[C@@H](C)[C@@H](O)[C@@H](C)[C@H](OC(=O)CC(=O)OCC2CCCN(C)C2)[C@@H]1C)C4=O (stereo partly drawn) [CGP 4832] |  |  |  |  |  |  |  |  |  |  |  |  |  |  |  |  |  |  |  |  | M. abscessus MIC in 7H9 + ADC, abscessus ATCC 19977 ([1]; 7H9 + ADC): 4 µg/mL; M. abscessus MIC in 7H9 + ADC, abscessus CCUG 71636 ([2]; 7H9 + ADC): 2 µg/mL; M. abscessus MIC in 7H9 + ADC, abscessus CCUG 71382 ([3]; 7H9 + ADC): 8 µg/mL; M. abscessus MIC in 7H9 + ADC, bolletii CCUG 50184 ([4]; 7H9 + ADC): 8 µg/mL; M. abscessus MIC in 7H9 + ADC, massiliense CCUG 48898 ([5]; 7H9 + ADC): 4 µg/mL; A. baumannii MIC in RPMI + FCS, WT ([6]; RPMI + FCS): 8 µg/mL; A. baumannii MIC in RPMI + FCS, Arr-2 ([7]; RPMI + FCS): 4 µg/mL; A. baumannii MIC in RPMI + FCS, RpoB H535Q ([8]; RPMI + FCS): >32 µg/mL; A. baumannii MIC in RPMI + FCS, RpoB H535C ([9]; RPMI + FCS): >32 µg/mL; A. baumannii MIC in RPMI + FCS, RpoB H535L ([10]; RPMI + FCS): >32 µg/mL; MIC E. faecium ([11]; strain NCTC 12204, CAMHB): 2000 µg/mL (≈ 2140 µM); MIC E. faecalis ([12]; CAMHB): 2000 µg/mL (≈ 2140 µM); MIC S. epidermidis ([13]; CAMHB): ≤2 µg/mL; MIC S. pneumoniae [14]: ≤2 µg/mL; MIC M. tuberculosis [15]: 3.6 µg/mL (≈ 3.85 µM); MIC S. pyogenes [16]: 8 µg/mL; MIC H. influenzae ([17]; Hemophilus test medium broth): 500 µg/mL (≈ 534 µM); MIC M. smegmatis [18]: 30 µg/mL
CO[C@H]1/C=C/O[C@@]2(C)Oc3c(C)c(O)c4c(c3C2=O)C2=NC3(CCN(CC(C)C)CC3)NC2=C(NC(=O)/C(C)=C\C=C\[C@H](C)[C@H](O)[C@@H](C)[C@@H](O)[C@@H](C)[C@H](OC(C)=O)[C@@H]1C)C4=O [Rifabutin, rifabutin] | 0.016 (≈ 0.0189 µM) | ≤ 0.002 | 8 | 8 | 0.001 | 0.03 | 0.125 | 4 | 16 | 8 | 2 | 0.125 | 0.004 | 0.03 | > 32 | 4000 (≈ 4720 µM) | 4 (≈ 4.72 µM) | 500 (≈ 590 µM) | 2 to 16 |  | MIC [24]: 16 µg/mL (≈ 18.9 µM); MIC [25]: 2 µg/mL (≈ 2.36 µM); MIC [26]: > 16 µg/mL; MIC [27]: 16 µg/mL (≈ 18.9 µM); MIC [28]: 8 µg/mL (≈ 9.44 µM); MIC ([6]; Acinetobacter baumannii; read-out: A. baumannii MIC in RPMI + FCS, WT): ≤ 0.002 µg/mL; MIC ([11]; NCTC12204, read-out: MIC E. faecium): 125 µg/mL (≈ 148 µM)
CO[C@H]1/C=C/O[C@@]2(C)Oc3c(C)c(O)c4c(c3C2=O)C2=NC3(CCN(CC(C)C)CC3)NC2=C(NC(=O)/C(C)=C\C=C\[C@H](C)[C@H](O)[C@@H](C)[C@@H](O)[C@@H](C)[C@H](OC(=O)CC(=O)OCC2CCCN(C)C2)[C@@H]1C)C4=O (stereo partly drawn) [Compound 3] | 0.06 (≈ 0.0599 µM) | ≤ 0.002 | 1 | 1 | 0.125 | 1 | 1 | 0.5 | 1 | 0.5 | 2 | ≤ 0.002 | ≤ 0.002 | 0.008 | 0.25 | 2000 (≈ 2000 µM) | ≤ 2 | 1000 (≈ 998 µM) | 0.5 to 2 | retained strong antibacterial activity | MIC ([6]; Acinetobacter baumannii, read-out: A. baumannii MIC in RPMI + FCS, WT): ≤ 0.002 µg/mL; MIC ([11]; NCTC12204, strain NCTC 12204, CAMHB, read-out: MIC E. faecium): 1000 µg/mL (≈ 998 µM); activity against A. baumannii with Arr- and RpoB mutation-mediated resistance [30]: overcame antibiotic resistance mechanisms
CO[C@H]1/C=C/O[C@@]2(C)Oc3c(C)c(O)c4c(c3C2=O)C(=O)C(N2CCOCC2)=C(NC(=O)/C(C)=C\C=C\[C@H](C)[C@H](O)[C@@H](C)[C@@H](O)[C@@H](C)[C@H](OC(=O)CC(=O)OCC2CCCN(C)C2)[C@@H]1C)C4=O (stereo partly drawn) [CGP4832, reference compound] |  |  |  |  |  |  |  |  |  |  |  |  |  |  |  |  |  |  |  | did not exhibit strong activity | activity against A. baumannii with Arr- and RpoB mutation-mediated resistance [30]: lost activity compared with rifabutin
